{
  "source": "patent US8969053B2",
  "about": "“Mutant YqhD enzyme for the production of a biochemical by fermentation” (Metabolic Explorer, priority 2009, dated 2015)",
  "key": {"[1]": {"target": "T1, E. coli YqhD variant YqhD*(G149E) (Escherichia coli, UniProt Q46856, G149E)", "T1 construct": "made in house; host or cells: E. coli MG1655 ΔyqhD::Km carrying pTRC99A-yqhD*(G149E)", "T1 sequence (Q46856 1-387 G149E)": "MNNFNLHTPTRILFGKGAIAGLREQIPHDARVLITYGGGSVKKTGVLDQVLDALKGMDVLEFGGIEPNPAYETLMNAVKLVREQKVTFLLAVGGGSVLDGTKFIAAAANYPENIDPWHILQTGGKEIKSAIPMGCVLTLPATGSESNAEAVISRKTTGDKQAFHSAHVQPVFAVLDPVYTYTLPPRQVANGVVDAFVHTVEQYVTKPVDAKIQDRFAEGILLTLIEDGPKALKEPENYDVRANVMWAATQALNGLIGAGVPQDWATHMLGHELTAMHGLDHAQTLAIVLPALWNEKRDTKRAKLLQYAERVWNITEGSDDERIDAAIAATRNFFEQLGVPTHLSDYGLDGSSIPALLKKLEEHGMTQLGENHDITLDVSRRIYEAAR", "experiment": "inhibition by NADP+, YqhD*(G149E)", "type": "biochemical", "description": "(§1) Methylglyoxal reductase activity was assayed by measuring the initial rate of NADPH oxidation with a spectrophotometer at a wavelength of 340 nm and at a constant temperature of 37° C. The reaction mixture using methylglyoxal as substrate was carried out in 20 mM Hepes pH 7.5, 0.1 mM Zinc sulphate, 0.2 mM NADPH, 0.6 μg of purified enzyme in a final volume of 1 ml. The reaction mixture was incubated for 5 min at 37° C. and then the reaction was initiated by the addition of the substrate methylglyoxal at a final concentration of 10 mM. Control assay (blank), lacking the substrate was run in parallel and the value measured for the control was subtracted to the value measured for the assay to take into account non-specific oxidation of NADPH.\n(§2) The NADP+ inhibition constant for three purified enzymes (yqhD, yqhD*(G149E) and yqhD*(G149S A286T)) were determined in the conditions described for the activity assay, excepted for the concentration of methylglyoxal that was increased to 20 mM. […] Five concentrations of the inhibitor NADP+ were used (0-0.05-0.1-0.2-0.5 mM) and the kinetics were recorded for each condition of inhibition. The NADP+ inhibition constant (Ki) of each protein was determined with the module enzyme kinetic from the software Sigma Plot (Systat Software Inc, San Jose, Calif.). […]"}, "[2]": {"target": "T2, Escherichia coli MG1655 YqhD, native (wild type), SEQ ID NO: 56 (Escherichia coli, UniProt Q46856)", "T2 construct": "made in house; host or cells: E. coli MG1655 ΔyqhD::Km carrying pTRC99A-yqhD", "T2 sequence (Q46856 1-387)": "T1 sequence (Q46856 1-387 G149E) with E149G", "experiment": "inhibition by NADP+, native YqhD", "type": "biochemical, E. coli", "description": "as §1, §2"}, "[3]": {"target": "T3, E. coli YqhD variant YqhD*(G149S A286T) (Escherichia coli, UniProt Q46856, A286T/G149S)", "T3 construct": "made in house; host or cells: E. coli MG1655 ΔyqhD::Km carrying pTRC99A-yqhD*(G149S)(A286T)", "T3 sequence (Q46856 1-387 G149S/A286T)": "T1 sequence (Q46856 1-387 G149E) with E149S, A286T", "experiment": "inhibition by NADP+, YqhD*(G149S A286T)", "type": "biochemical", "description": "as §1, §2"}},
  "note": "Residue numbers refer to the chain shown, from its start.",
  "data": [
    {"smiles": "NC(=O)c1ccc[n+]([C@@H]2O[C@H](COP(=O)([O-])OP(=O)(O)OC[C@H]3O[C@@H](n4cnc5c(N)ncnc54)[C@H](OP(=O)(O)O)[C@@H]3O)[C@@H](O)[C@H]2O)c1", "note": "[NADP+]", "values": [
      {"measurement": "Ki", "setting": "[1]", "result": "28 ± 5", "unit": "µM"},
      {"measurement": "Ki", "setting": "[2]", "result": 68, "unit": "µM"},
      {"measurement": "Ki", "setting": "[3]", "result": "16 ± 2.5", "unit": "µM"}
    ]}
  ]
}
